The values that follow are results of earlier work, collected in patent US20050287177A1, “Pharmaceutical compositions” (Glaxo Group Unlimited and Smithkline Beecham Corp., priority 2002, published 2005).

The conditions of data set [1]: colon versus small intestine.
For data set [2] the following is noted: elimination.

On to `Cc1cn([C@H]2C[C@H](N=[N+]=[N-])[C@@H](CO)O2)c(=O)[nH]c1=O` [Zidovudine, 3′-azido-3′-deoxythymidine], for which, in data set [1], the colonic absorption entry is “very low”. Besides, the terminal half-life in data set [2] is 1.5 to 2 h.
